Reference: article PMC7164622, “Citrate lyase CitE in Mycobacterium tuberculosis contributes to mycobacterial survival under hypoxic conditions” (PLoS ONE, 2020)

Legend:
MtbCitE (CitE) [1] = target: T1, MtbCitE (CitE) (Mycobacterium tuberculosis, UniProt P9WPE1)
MtbCitE (CitE) [2] = target: T1, MtbCitE (CitE); remark: listed apart in the source
[3] = target: the molecule itself; assay: cross-linking; chemical cross-linking with 4 μM disuccinimidyl suberate (DSS), 10 mM CitE protein (so in the source), 100 mM NaH2PO4 pH 8.0, 150 mM NaCl, room temperature, half an hour, then SDS-PAGE

`O=C(O)CC(O)(CC(=O)O)C(=O)O` [citrate] was tested, and the citrate cleavage activity (MtbCitE (CitE) [1]) was “we predicted that purified MtbCitE had citrate lyase activity”.

For `Nc1ncnc2c1ncn2[C@@H]1O[C@H](COP(=O)(O)OP(=O)(O)OP(=O)(O)O)[C@@H](O)[C@H]1O` [ATP], the “activity with 0-1.5 mM ATP” value (MtbCitE (CitE) [2]) was “the citrate cleavage activity of MtbCitE was inhibited by ATP”.

B1: Mycobacterium tuberculosis CitE (MtbCitE), citrate lyase (enzyme)
chain: MNLRAAGPGWLFCPADRPERFAKAAAAADVVILDLEDGVAEAQKPAARNALRDTPLDPERTVVRINAGGTADQARDLEALAGTAYTTVMLPKAESAAQVIELAPRDVIALVETARGAVCAAEIAAADPTVGMMWGAEDLIATLGGSSSRRADGAYRDVARHVRSTILLAASAFGRLALDAVHLDILDVEGLQEEARDAAAVGFDVTVCIHPSQIPVVRKAYRPSHEKLAWARRVLAASRSERGAFAFEGQMVDSPVLTHAETMLRRAGEATSE
notes: also called Rv2498c; citrate lyase β-subunit
For B1, the “stoichiometry N” value [3] was 3.
